Experimental data from patent US6576455B1, “Structure-based designed herbicide resistant products” (priority 1995, dated 2003).

Experiments:
[1] = tested on: tobacco plants; assay: Germination tests of tobacco seeds in the presence of CL 299,263 (imazamox); assay type: in vivo, Nicotiana tabacum; conditions: 2.5 μM CL 299,263
Description: Tobacco plants transformed with rationally designed AHAS genes as described in Example 8 above were also tested for cross-resistance to another herbicide, CL 299,263 (also known as imazamox).

[2] = tested on: tobacco shoots; assay: Root formation of tobacco shoots on medium containing 0.25 μM imazethapyr; assay type: in vivo, Nicotiana tabacum cv. Wisconsin 38; conditions: 0.25 μM imazethapyr in medium
Description: FIG. 13 is a photograph showing the root development of tobacco plants transformed with the Arabidopsis AHAS gene containing either the Met124Ile or Arg199Glu mutation and a non-transformed control. Plants were grown for 18 days after transfer into medium containing 0.25 μM imazethapyr.
Leaf disc transformation of Nicotiana tabacum cv. Wisconsin 38 was performed as described by Horsch et al. (Science, 227: 1229-1231, 1985) with slight modifications. Leaf discs were cut from plants grown under sterile conditions and co-cultivated upsidedown in Murashige Skoog media (Sigma Chemical Co., St. Louis, Mo.) for 2-3 days at 25° C. in darkness with Agrobacterium tumefaciens strains containing plasmids pJK002, pJK003, or pJK004. The discs were blotted dry and transferred to regeneration Murashige Skoog medium with B5 vitamins containing 1 mg/L benzyladenine and 0.1 mg/l 1-Napthyl Acetic Acid, 100 mg/L kanamycin, and 500 mg/L cefotaxime (all obtained from Sigma).
Initially, transformants were selected by kanamycin resistance conferred by the nptII gene present in the transformation vector. Shoots derived from the leaf discs were excised and placed on fresh Murashige Skoog hormone free media containing cefotaxime and kanamycin.
Kanamycin-resistant tobacco shoots were transferred to medium containing a 0.25 μM imazethapyr. […]

COCc1cnc(C2=NC(C)(C(C)C)C(=O)N2)c(C(=O)O)c1 (centres unmarked) [CL 299,263, imazamox]
effect on wild-type tobacco plants [1]: severe stunting and bleaching

CCc1cnc(C2=NC(C)(C(C)C)C(=O)N2)c(C(=O)O)c1 (centres unmarked) [imazethapyr]
root formation of non-transformed tobacco shoots (endogenous wild-type AHAS) [2]: not able to initiate root formation
